Experimental data published in the Biogen ADME set (Fang et al. 2023).
≈ marks a conversion by molar mass, not a printed value.

Conditions: for aqueous solubility: pH 6.8

MDR1-MDCK efflux ratio | intrinsic clearance, human liver microsomes [mL/min/kg] | intrinsic clearance, rat liver microsomes [mL/min/kg] | aqueous solubility [µg/mL] | fraction unbound, human plasma | fraction unbound, rat plasma | Structure (SMILES)
3.79 | 10.9 | 450 | 118 (≈ 375 µM) |  |  | O=C1CC[C@H](O)[C@@H](c2cccc(Cl)c2)N1Cc1ccccc1
0.571 | 5.8 | 65.2 | 23.1 (≈ 86.3 µM) |  |  | O=c1n(CCc2ccncc2)nnn1-c1ccccc1
0.485 | 14.4 |  |  | 0.00124 |  | Cc1nnc(-c2ccc(N3CCC(Oc4ccccc4C(F)(F)F)CC3)nn2)s1
0.732 | ≤ 4.74 | 12.8 | 49.5 (≈ 172 µM) |  |  | C#CCN1CCC(c2nc(Cc3noc(C)n3)no2)CC1
0.835 | 11.4 | 332 | 37.7 (≈ 138 µM) |  |  | CCC(Nc1cnn(C)c1)c1ccc2c(c1)OCCO2 (centres undefined)
 | 41.9 | ≤ 10.7 |  |  |  | O=c1[nH]c(=O)n([C@H]2C[C@H](O)[C@@H](CO)O2)cc1C(F)(F)F
1.01 | ≤ 4.74 | ≤ 10.7 | 58.2 (≈ 264 µM) |  |  | NC(=O)CC1CCN(c2ncccn2)CC1
 |  |  | 38.9 (≈ 161 µM) |  |  | C#CCNC(=O)CN1C(=O)c2ccccc2C1=O
31.1 | ≤ 4.74 | 24.7 | 1.23 (≈ 2.83 µM) | 0.098 | 0.033 | CNc1cc(Nc2cccn(-c3ccccn3)c2=O)nn2c(C(=O)N[C@@H]3C[C@@H]3F)cnc12
2.69 | 13 | 83 | 39.6 (≈ 116 µM) |  |  | O=C(NCCN1C(=O)CSC1=O)c1cc(Cl)c2c(c1)OCO2
1.2 | 10.7 | 114 | 6.21 (≈ 17.4 µM) |  |  | c1ccc(-c2n[nH]c(C3CCN(c4cnc5ccccc5n4)CC3)n2)cc1
0.756 | 8.2 | 40 | 62.8 (≈ 215 µM) |  |  | Cc1cc(C)c(NC(=O)c2cc(Cl)ccc2F)c(C)n1
 | 41.5 | 351 | 5.4 (≈ 17 µM) |  |  | Cc1ccc2oc([C@H]3CCN(Cc4ccc(C#N)cc4)C3)nc2c1
16.6 | 45.4 | 307 | 3.3 (≈ 8.47 µM) |  |  | Cc1ccc(NC(=O)c2cccc(N(C)C)c2)cc1NC(=O)c1ccc(O)cc1
0.698 | ≤ 4.74 | 46.5 | 22.7 (≈ 89.8 µM) |  |  | COc1cccc(-c2nc(-c3cccnc3)n[nH]2)c1
4.1 | ≤ 4.74 | 28.2 | 67.2 (≈ 218 µM) |  |  | Cn1cc(NC(=O)[C@@H]2CCCCN2C(=O)OC(C)(C)C)cn1
 | 18.6 | 148 |  |  |  | COc1ccc(Cc2noc(-c3cccc4c3OCC(=O)N4)n2)cc1
 | 101 | 943 | 2.15 (≈ 6.73 µM) |  |  | CCc1nc2ccc(C(=O)NCc3ccccc3)cc2nc1CC
0.607 | 33 | 204 | 34.9 (≈ 133 µM) |  |  | Cc1cnc(CNCc2cccc3c2OCO3)s1
1.79 | 106 | 643 | 61.9 (≈ 153 µM) |  |  | COc1cc2c(cc1OC)CN(C(=O)C1CCCN(C(=O)OC(C)(C)C)C1)CC2 (centres undefined)
 | ≤ 4.74 | ≤ 10.7 |  |  |  | O=C(CCC1CCOCC1)Nc1ccc(C(=O)O)cc1
